Measured values reported in ChEMBL document CHEMBL5042538 (J Med Chem, 2022).

Key:
CYP3A [1] = assay: Time dependent inhibition of CYP3A in human liver microsomes assessed as enzyme remaining activity at 10 uM using N-ethyl-1,8-naphthalimide as substrate preincubated for 30 mins in presence of NADPH generating system followed by substrate addition and incubated for 10 mins by microplate reader analysis relative to control; assay type: ADME; conditions: probe N-ethyl-1,8-naphthalimide, time 40 min, read-out: TDI
[2] = Time dependent inhibition of CYP3A in human liver microsomes incubated for 30 mins in presence of NADPH generating system by LC-MS/MS analysis; assay type: ADME
CYP3A [3] = assay: Inhibition of CYP3A in human liver microsomes at 10 uM using midazolam as substrate incubated for 10 mins relative to control; assay type: ADME; conditions: probe midazolam
[4] = Time dependent inhibition of CYP3A in human liver microsomes using midazolam as substrate preincubated for 30 mins in presence of NADPH generating system followed by substrate addition incubated for 30 mins by LC-MS/MS analysi; assay type: ADME
CYP3A [5] = assay: (§1) Ratio of IC50 for time dependent inhibition of CYP3A in human liver microsomes incubated for 30 mins by LC-MS/MS analysis to IC50 for time dependent inhibition of CYP3A in human liver microsomes using midazolam as substrate preincubated for 30 mins in presence of NADPH-generating system followed by substrate addition further incubated for 30 mins by LC-MS/MS analysis; conditions: probe midazolam, read-out: Ratio IC50
CYP3A4 [6] = biological target: T1, CYP3A4 (Homo sapiens, UniProt P08684); assay: Time dependent inhibition of recombinant human CYP3A4 assessed as enzyme remaining activity at 2.5 uM using midazolam as substrate incubated for 30 mins relative to control; assay type: ADME; conditions: recombinant human CYP3A4, probe midazolam, read-out: TDI
[7] = Drug metabolism assessed as human CYP2D6-mediated M1 metabolite formation at 7.32 mins in presence of NADPH generating system by LC-MS/MS analysis; assay type: ADME; conditions: recombinant enzyme, 0.122 h
CYP3A4 [8] = biological target: T1, CYP3A4; assay: Inactivation of recombinant human CYP3A4 assessed as inactivation constant using midazolam as substrate preincubated for 5 mins followed by beta-NADP addition for 15 mins and midazolam addition after 10 mins in presence of NADPH-generating system by LC-MS/MS analysis; assay type: ADME; conditions: recombinant human CYP3A4, probe midazolam, time 30 min
Cytochrome P450 3A4 [9] = biological target: T2, Cytochrome P450 3A4 (Homo sapiens, UniProt P08684); assay: Time dependent inhibition of recombinant human CYP3A4 incubated for 30 mins in presence of NADPH generating system by LC-MS/MS analysis; assay type: ADME
Cytochrome P450 3A4 [10] = biological target: T2, Cytochrome P450 3A4; assay: Inactivation of recombinant human CYP3A4 assessed as inhibition constant using midazolam as substrate preincubated for 5 mins followed by beta-NADP addition for 15 mins and midazolam addition after 10 mins in presence of NADPH-generating system by LC-MS/MS analysis; assay type: ADME
Cytochrome P450 3A4 [11] = biological target: T2, Cytochrome P450 3A4; assay: Time dependent inhibition of recombinant human CYP3A4 using midazolam as substrate preincubated for 30 mins in presence of NADPH generating system followed by substrate addition incubated for 30 mins by LC-MS/MS analysi; assay type: ADME
Cytochrome P450 3A4 [12] = biological target: T2, Cytochrome P450 3A4; assay: Drug metabolism assessed as human CYP3A4-mediated M1 metabolite formation at 7.32 mins in presence of NADPH generating system by LC-MS/MS analysis; assay type: ADME; conditions: recombinant enzyme, 0.122 h
Cytochrome P450 3A4 [13] = biological target: T2, Cytochrome P450 3A4; assay: Inactivation of CYP3A4 in human liver microsomes assessed as inhibition constant using midazolam as substrate preincubated for 5 mins followed by beta-NADP addition for 15 mins and midazolam addition after 10 mins in presence of NADPH-generating system by LC-MS/MS analysis; assay type: ADME
Cytochrome P450 3A4 [14] = biological target: T2, Cytochrome P450 3A4; assay: Inactivation of recombinant human CYP3A4 assessed as partition ratio in presence of NADPH-generating system; assay type: ADME; conditions: recombinant enzyme
CYP3A4 [15] = biological target: T1, CYP3A4; assay: Inactivation of CYP3A4 in human liver microsomes assessed as inactivation constant using midazolam as substrate preincubated for 5 mins followed by beta-NADP addition for 15 mins and midazolam addition after 10 mins in presence of NADPH-generating system by LC-MS/MS analysis; assay type: ADME; conditions: probe midazolam, time 30 min
[16] = Inhibition of CYP3A in human liver microsomes at 2.5 uM using Nifedipine as substrate at 10 to 20 fold excess concentration preincubated for 5 mins followed by beta-NADP addition and measured upto 12 mins; assay type: ADME; conditions: 0.2 h, time <=17 min
[17] = Drug metabolism assessed as human CYP2D6-mediated M2 metabolite formation at 7.80 mins in presence of NADPH generating system by LC-MS/MS analysis; assay type: ADME; conditions: recombinant enzyme, 0.13 h, time 7.8 min
[18] = Inactivation of CYP3A in human liver microsomes at 0.25 uM using midazolam as substrate in presence of NADPH generating system and super oxide dismutase; assay type: ADME
CYP3A4 [19] = biological target: T1, CYP3A4; assay: Inactivation of recombinant human CYP3A4 at 0.1 uM for 10 mins relative to control; assay type: ADME
CYP3A [20] = assay: Inhibition of CYP3A in human liver microsomes at 1 uM using midazolam as substrate incubated for 10 mins relative to control; assay type: ADME; conditions: probe midazolam
CYP3A5 = CYP3A5 (Homo sapiens, UniProt P20815); assay: as §1, with “recombinant” for “CYP3A in”, “CYP3A5” for “liver microsomes”; conditions: recombinant human CYP3A5, probe midazolam, read-out: Ratio IC50
Cytochrome P450 3A5 [21] = biological target: T3, Cytochrome P450 3A5 (Homo sapiens, UniProt P20815); assay: Time dependent inhibition of recombinant human CYP3A5 incubated for 30 mins in presence of NADPH generating system by LC-MS/MS analysis; assay type: ADME
[22] = Inactivation of CYP3A in human liver microsomes at 0.25 uM using midazolam as substrate in presence of NADPH generating system and mannitol; assay type: ADME
[23] = Inactivation of CYP3A in human liver microsomes at 0.25 uM using midazolam as substrate in presence of NADPH generating system and ferric cyanide; assay type: ADME
Cytochrome P450 3A5 [24] = biological target: T3, Cytochrome P450 3A5; assay: Time dependent inhibition of recombinant human CYP3A5 using midazolam as substrate preincubated for 30 mins in presence of NADPH generating system followed by substrate addition incubated for 30 mins by LC-MS/MS analysis; assay type: ADME
[25] = Inhibition of CYP3A in human liver microsomes at 2.5 uM using de-oxyschizandrin as substrate at 10 to 20 fold excess concentration preincubated for 5 mins followed by beta-NADP addition and measured upto 12 mins; assay type: ADME; conditions: 0.2 h, time <=17 min
CYP3A [26] = assay: Inactivation of CYP3A in human liver microsomes using midazolam as substrate assessed as enzyme remaining activity in presence of glutathione; assay type: ADME; conditions: probe midazolam, read-out: INH
CYP3A4 [27] = biological target: T1, CYP3A4; assay: Time dependent inhibition of CYP3A4 in human liver microsomes assessed as enzyme remaining activity at 2.5 uM using midazolam as substrate preincubated for 30 mins in presence of NADPH-generating system relative to control; assay type: ADME; conditions: probe midazolam, read-out: TDI
CYP3A4 [28] = assay: Time dependent inhibition of CYP3A4 in human liver microsomes assessed as enzyme remaining activity at 2.5 uM using midazolam as substrate incubated for 30 mins relative to control; assay type: ADME; conditions: probe midazolam, read-out: TDI
Cytochrome P450 3A7 [29] = biological target: T4, Cytochrome P450 3A7 (Homo sapiens, UniProt P24462); assay: Time dependent inhibition of recombinant human CYP3A7 incubated for 30 mins in presence of NADPH generating system by LC-MS/MS analysis; assay type: ADME
Cytochrome P450 3A4 [30] = biological target: T2, Cytochrome P450 3A4; assay: Drug metabolism assessed as human CYP3A4-mediated M2 metabolite formation at 7.80 mins in presence of NADPH generating system by LC-MS/MS analysis; assay type: ADME; conditions: recombinant enzyme, 0.13 h, time 7.8 min
CYP3A4 [31] = biological target: T1, CYP3A4; assay: as §1, with “recombinant” for “CYP3A in”, “CYP3A4” for “liver microsomes”; conditions: recombinant human CYP3A4, probe midazolam, read-out: Ratio IC50
[32] = Inactivation of CYP3A in human liver microsomes at 0.25 uM using midazolam as substrate in presence of NADPH generating system and catalase; assay type: ADME
Cytochrome P450 3A7 [33] = biological target: T4, Cytochrome P450 3A7; assay: Time dependent inhibition of recombinant human CYP3A7 using midazolam as substrate preincubated for 30 mins in presence of NADPH generating system followed by substrate addition incubated for 30 mins by LC-MS/MS analysi; assay type: ADME
CYP3A7 = CYP3A7 (Homo sapiens, UniProt P24462); assay: as §1, with “recombinant” for “CYP3A in”, “CYP3A7” for “liver microsomes”; conditions: recombinant human CYP3A7, probe midazolam, read-out: Ratio IC50
CYP3A4 [34] = biological target: T1, CYP3A4; assay: Time dependent inhibition of recombinant human CYP3A4 assessed as enzyme remaining activity at 2.5 uM using midazolam as substrate preincubated for 30 mins in presence of NADPH-generating system relative to control; assay type: ADME; conditions: recombinant human CYP3A4, probe midazolam, read-out: TDI
[35] = Time dependent inhibition of human CYP3A in human liver microsomes using midazolam as substrate preincubated for 30 mins in presence of NADPH-generating system followed by substrate addition incubated for 10 mins by LC-MS/MS analysis; assay type: ADME

T2 sequence (P08684 whole entry): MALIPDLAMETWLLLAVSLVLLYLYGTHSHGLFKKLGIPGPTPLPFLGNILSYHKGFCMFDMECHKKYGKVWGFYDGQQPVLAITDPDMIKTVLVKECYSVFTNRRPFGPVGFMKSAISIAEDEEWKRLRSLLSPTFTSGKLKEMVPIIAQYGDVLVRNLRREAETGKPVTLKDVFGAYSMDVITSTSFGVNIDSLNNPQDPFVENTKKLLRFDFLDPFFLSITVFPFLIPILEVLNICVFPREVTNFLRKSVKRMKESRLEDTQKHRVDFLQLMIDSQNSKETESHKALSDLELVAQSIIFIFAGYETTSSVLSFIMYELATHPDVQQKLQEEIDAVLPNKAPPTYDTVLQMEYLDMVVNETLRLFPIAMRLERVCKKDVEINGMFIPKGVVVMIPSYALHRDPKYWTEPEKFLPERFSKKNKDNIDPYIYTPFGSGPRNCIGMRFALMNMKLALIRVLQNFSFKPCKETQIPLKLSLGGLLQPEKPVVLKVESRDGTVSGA
T1 sequence (P08684 whole entry): as above
T3 sequence (P20815 whole entry): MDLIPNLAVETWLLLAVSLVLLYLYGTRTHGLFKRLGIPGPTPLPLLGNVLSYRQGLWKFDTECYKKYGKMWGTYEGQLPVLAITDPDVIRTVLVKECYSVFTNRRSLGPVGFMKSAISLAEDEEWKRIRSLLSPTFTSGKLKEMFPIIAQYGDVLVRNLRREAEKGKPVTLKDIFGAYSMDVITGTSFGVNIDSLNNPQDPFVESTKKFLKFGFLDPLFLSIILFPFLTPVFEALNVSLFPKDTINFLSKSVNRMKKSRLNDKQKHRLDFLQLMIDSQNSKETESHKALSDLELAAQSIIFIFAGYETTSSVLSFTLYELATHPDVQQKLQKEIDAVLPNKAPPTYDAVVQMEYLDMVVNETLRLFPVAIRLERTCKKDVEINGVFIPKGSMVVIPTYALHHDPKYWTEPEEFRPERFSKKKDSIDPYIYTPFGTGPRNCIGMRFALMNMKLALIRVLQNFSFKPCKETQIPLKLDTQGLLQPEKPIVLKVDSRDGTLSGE
T4 sequence (P24462 whole entry): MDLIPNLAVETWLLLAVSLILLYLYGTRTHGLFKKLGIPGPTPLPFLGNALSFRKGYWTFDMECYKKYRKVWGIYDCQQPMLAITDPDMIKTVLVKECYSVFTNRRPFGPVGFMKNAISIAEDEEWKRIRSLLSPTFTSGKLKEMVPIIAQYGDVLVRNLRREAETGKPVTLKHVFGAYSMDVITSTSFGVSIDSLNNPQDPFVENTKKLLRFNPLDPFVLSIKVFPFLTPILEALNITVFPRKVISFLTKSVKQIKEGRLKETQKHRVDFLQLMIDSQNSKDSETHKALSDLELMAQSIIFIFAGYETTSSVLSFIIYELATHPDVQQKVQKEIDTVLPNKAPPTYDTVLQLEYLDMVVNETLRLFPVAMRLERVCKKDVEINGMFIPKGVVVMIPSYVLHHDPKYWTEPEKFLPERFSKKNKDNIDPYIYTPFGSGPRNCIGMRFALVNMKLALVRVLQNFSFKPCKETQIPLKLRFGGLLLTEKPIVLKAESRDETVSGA
CYP3A5, sequence (P20815 whole entry): as the sequence (P20815 whole entry) above
CYP3A7, sequence (P24462 whole entry): as the sequence (P24462 whole entry) above

C[C@]12CC[C@H](O)C[C@H]1CC[C@@H]1[C@@H]2CC[C@]2(C)[C@@H](c3ccc(=O)oc3)CC[C@]12O [BUFALIN]
activity at 10 min, 10 µM (CYP3A [1]): 6.81% | IC50 [2]: 11400 nM | inhibition at 10 min, 10 µM (CYP3A [3]): 53% | IC50 [4]: 740 nM

CC(=O)O[C@H]1[C@H]2O[C@]23[C@@H]2CC[C@@H]4CC(=O)CC[C@]4(C)[C@H]2CC[C@]3(C)[C@H]1c1ccc(=O)oc1
IC50 shift at 0.5 h (CYP3A [5]): 24.8 | IC50 [2]: 13400 nM | IC50 [4]: 540 nM

C[C@]12CCC(=O)C[C@H]1CC[C@@H]1[C@@H]2CC[C@]2(C)[C@@H](c3ccc(=O)oc3)CC[C@]12O
activity at 0.5 h, 2.5 µM (CYP3A4 [6]): 81.2% | Drug metabolism [7]: Metabolite_Detected | kinact (CYP3A4 [8]): 0.00268 s⁻¹ | IC50 (Cytochrome P450 3A4 [9]): 1560 nM | Ki (Cytochrome P450 3A4 [10]): 250 nM | IC50 (Cytochrome P450 3A4 [11]): 90 nM | Drug metabolism (Cytochrome P450 3A4 [12]): Metabolite_Detected | Ki (Cytochrome P450 3A4 [13]): 660 nM | Ratio (Cytochrome P450 3A4 [14]): 0.75 | kinact (CYP3A4 [15]): 0.00107 s⁻¹ | IC50 shift at 0.5 h (CYP3A [5]): 12.3 | inhibition (INH) [16]: Not Active | Drug metabolism [17]: Metabolite_Detected | inhibition (INH) [18]: Active | inhibition at 10 min, 0.1 µM (CYP3A4 [19]): 50% | inhibition at 10 min, 1 µM (CYP3A [20]): 49% | IC50 shift at 0.5 h (CYP3A5): 5.87 | IC50 (Cytochrome P450 3A5 [21]): 5490 nM | inhibition (INH) [22]: Active | inhibition (INH) [23]: Active | IC50 (Cytochrome P450 3A5 [24]): 2340 nM | inhibition (INH) [25]: Not Active | activity (CYP3A [26]): 43.8% | activity at 30 min, 2.5 µM (CYP3A4 [27]): 19.7% | activity at 0.5 h, 2.5 µM (CYP3A4 [28]): 72.5% | IC50 (Cytochrome P450 3A7 [29]): 10800 nM | Drug metabolism (Cytochrome P450 3A4 [30]): Metabolite_Detected | IC50 shift at 0.5 h (CYP3A4 [31]): 17.3 | inhibition (INH) [32]: Active | IC50 [2]: 370 nM | IC50 (Cytochrome P450 3A7 [33]): 64800 nM | IC50 shift at 0.5 h (CYP3A7): 17.5 | IC50 [4]: 450 nM | activity at 30 min, 2.5 µM (CYP3A4 [34]): 11.9% | IC50 [35]: 30 nM

C[C@]12CCC(=O)C[C@H]1CC[C@@H]1[C@@H]2CC[C@]2(C)[C@@H](c3ccc(=O)oc3)C[C@H]3O[C@]132
IC50 shift at 0.5 h (CYP3A [5]): 11.4 | IC50 [2]: 5930 nM | IC50 [4]: 520 nM
